We go through 17 compounds from patent US11713318B2, “Short conjugated oligoelectrolytes and uses thereof” (The Regents Of The University Of California, priority 2018, dated 2023).

Like-named read-outs stand apart in the source and are kept apart here. Some results are limits rather than exact numbers.

Series [1] in a line: Cytotoxicity, MTT assay. The series is classed as cell-based. As to conditions: human, Hep G2, at the concentration given as IC50 bound, read-out: cell viability at the highest or lowest test concentration. The method, then: (§1) Before removing the frozen cell stocks from liquid nitrogen, culture medium was pre-warmed to 37° C. The frozen tube was then removed from liquid nitrogen and placed into a 37° C. water bath and shaken gently to thaw the cell stock as quickly as possible. A small portion of the pre-warmed culture medium was added to the cell solution. The cell suspension was then centrifuged at 1000 r/min for 3 minutes. The supernatant was discarded and the cells were resuspended in fresh culture medium.
(§2) NIH 3T3 (ATCC CRL-1658) and Hep G2 (ATCC HB-8065) cells were cultured with DMEM+10% FBS in 100 mm dishes. Cells were lifted for subculture or testing when confluence reached ˜60% by treating with 1× trypsin (incubated for 3 min at 37° C.). J774 (ATCC TIB-67) cells were cultured with DMEM+10% FBS in 100 mm dishes. Cells were lifted for subculture or testing when confluence reached ˜80% using a cell scraper. RAW264.7 (ATCC TIB-71) cells were cultured with DMEM+10% heat-inactivated FBS+1% pen/strep in T75 flasks. Cells were lifted for subculture or testing when confluence reached ˜80% using a cell scraper.
(§3) • 1. Cells were lifted and resuspended in culture medium. The number of cells in the cell suspension was determined using an auto-cell counter: 10 μL of the cell suspension was mixed with 10 μL 1× trypan blue (filtered with 0.2 μm PES filter) and the mixture was loaded onto a cell counting slide. Based on the concentration of viable cells, the cell suspension was further diluted to achieve the desired density. • 2. Cells were seeded in 96 well plates by adding 100 μL final cell suspension column-by-column using a multichannel pipette (5000 cells/well for NIH 3T3, 10000 cells/well for Hep G2, J774 and RAW264.7). The outer wells were block with PBS to reduce the effects of evaporation. One column was filled with only culture medium as a blank. Cells were incubated overnight before adding the test articles. • 3. Test articles were dissolved in 1×PBS (or DMSO) to obtain stocks solution. Stock solutions were pre-warmed before use. […] Serial dilutions (2-fold) of the 10× solutions were made in sterile culture tubes by diluting in 1×PBS (8 dilutions to yield 9 test concentrations). 900 μL of culture media was added to each tube to obtain final drug solution containing 10% PBS (or less than 1% DMSO) for each experimental group. • 4. The original culture medium was gently removed from the 96-well plates using a pipette. 100 μL of the test article solutions prepared in Step 3 were added to rows 2-7 of each column to obtain six replicates for each concentration. Plates were then incubated for 24 hours. • 5. MTT solutions were prepared by dissolving commercial MTT powder in 1×PBS to a concentration of 5 mg/mL. After passing through a 0.22 μm PES filter, the MTT solution was divided into 1 mL portions in sterile centrifuge tubes and stored at −20° C. • 6. MTT stock solutions were removed from the freezer to thaw at room temperature. Before adding MTT solutions, cell cultures were visually inspected and imaged using a microscope (to use as a comparison with MTT results). 10 μL of the 5 mg/mL MTT solution was added to each well and the plate was incubated for 4 hours. • 7. After 4 h incubation, the culture medium/MT solution was removed gently using a pipette. 100 μL of DMSO was added to each well using a multichannel pipette. The 96-well plates were analyzed in a plate reader using the following method: shake for 5 minutes, wait for 30 seconds, and measure absorbance at 570 nm. • 8. Data processing: The average of background Abg was calculated from the blank column. All other data was first treated by subtracting Abg. The average A. and standard deviation Se of each experimental group and the average Ac and standard deviation Sc for control group (with pure culture medium incubation) were then calculated. The cell viability was determined as Ae/Ac×100% and corresponding error as Se/Ae×100%. Significant outliers in any experimental or control group were removed. […]
In general terms: Tetrazolium dyes change colour on reduction, which living cells bring about.

The test system of series [2] is Hep G2 (ATCC HB-8065) cells. The series is described as follows: Cytotoxicity, MTT assay. The series is classed as cell-based. The settings on record: Homo sapiens, HepG2, 24 h. The procedure:
as §1, §2, §3

Series [3] deals with E. coli K12 (ATCC 47076). The series is described as follows: MIC broth microdilution method, Table 3. The settings on record: Escherichia coli, ATCC47076. On the technique in general: In broth dilution the organism is exposed to a series of concentrations in liquid medium.
Series [4] deals with S. epidermidis (ATCC 14990). The series is described as follows: MIC broth microdilution method, Table 3. The settings on record: Staphylococcus epidermidis, ATCC14990.
Series [5] concerns NIH 3T3 (ATCC CRL-1658) cells. The series can be described thus: Cytotoxicity, MTT assay. The series is classed as cell-based. As to conditions: Mus musculus. The procedure:
as §1, §2, §3

The mark [6] stands for this setting: Hep G2, MTT, 24 hours incubation, read-out: IC50.
Where [7] appears, read: NIH3T3, NIH 3T3, MTT, 24 hours incubation, read-out: IC50.

As to `C[N+](C)(C)CCCOc1cc(/C=C/c2ccc(/C=C/c3cc(OCCC[N+](C)(C)C)cc(OCCC[N+](C)(C)C)c3)cc2)cc(OCCC[N+](C)(C)C)c1` [Formula X], the viability at 24 h in series [1] (Hep G2 (ATCC HB-8065) cells) worked out at 73%. Moreover, in series [2] (setting [6]), the IC50 is more than 1020 µg/mL. The same compound registered an MIC in series [3] of 64 µg/mL.

As to `C[N+](C)(C)CCCCCCOc1cc(/C=C/c2cc(OCCCCCC[N+](C)(C)C)cc(OCCCCCC[N+](C)(C)C)c2)cc(OCCCCCC[N+](C)(C)C)c1` [Formula A], the viability at 24 h in series [1] amounted to 68%. The compound also registered an IC50 in series [2] of more than 128 µg/mL.

In the case of `C[N+](C)(CCCN)CCCOc1cc(/C=C/c2ccc(/C=C/c3cc(OCCC[N+](C)(C)CCCN)cc(OCCC[N+](C)(C)CCCN)c3)cc2)cc(OCCC[N+](C)(C)CCCN)c1` [Formula PP], the MIC was 16 µg/mL in series [4] and 32 µg/mL in series [3].

With `C[C@@H](O)[C@H]1C(=O)N2C(C(=O)O)=C(S[C@@H]3CN[C@H](C(=O)N(C)C)C3)[C@H](C)[C@H]12` [Meropenem, reference compound], the viability at 24 h in series [1] (Hep G2 (ATCC HB-8065) cells) was 96%. Further, the IC50 in series [2] (setting [6]) was more than 128 µg/mL.

In the case of `C[N+](C)(CCCOc1cc(/C=C/c2ccc(/C=C/c3cc(OCCC[N+](C)(C)CC(O)CO)cc(OCCC[N+](C)(C)CC(O)CO)c3)cc2)cc(OCCC[N+](C)(C)CC(O)CO)c1)CC(O)CO` (centres unmarked) [Formula OO], the viability at 24 h in series [1] (Hep G2 (ATCC HB-8065) cells) worked out at 61%. Moreover, the IC50 in series [2] (setting [6]) is more than 1020 µg/mL. The MIC was more than 64 µg/mL in series [4] and more than 128 µg/mL in series [3].

For the compound `C[N+]1(CCCCCCOc2cc(/C=C/c3cc(OCCCCCC[N+]4(C)CCCCC4)cc(OCCCCCC[N+]4(C)CCCCC4)c3)cc(OCCCCCC[N+]3(C)CCCCC3)c2)CCCCC1.[I-].[I-].[I-].[I-]` [Formula N], in series [5] (NIH3T3, 24 h), the IC50 was 124 µg/mL. For the same compound, the MIC was 2 µg/mL in series [4] and 128 µg/mL in series [3].

On to `C[N+]12CC[N+](CCCOc3cc(/C=C/c4ccc(/C=C/c5cc(OCCC[N+]67CC[N+](C)(CC6)CC7)cc(OCCC[N+]67CC[N+](C)(CC6)CC7)c5)cc4)cc(OCCC[N+]45CC[N+](C)(CC4)CC5)c3)(CC1)CC2` [Formula DD], for which, in series [1] (Hep G2 (ATCC HB-8065) cells), the viability at 24 h worked out at 85%. Also, the IC50 in series [2] (setting [6]) is more than 128 µg/mL. Further, the MIC in series [4] came out at 16 µg/mL; in series [3] it was 64 µg/mL.

Compound `C[N+](C)(C)CCCCCCCCOc1cc(/C=C/c2cc(OCCCCCCCC[N+](C)(C)C)cc(OCCCCCCC[N+](C)(C)C)c2)cc(OCCCCCCC[N+](C)(C)C)c1.[I-].[I-].[I-].[I-]` [Formula B] yielded a half-inhibitory concentration (IC50) in series [2] of 9.9 µg/mL.

`CC(C)CCC[N+](C)(C)CCCCOc1cc(/C=C/c2ccc(/C=C/c3cc(OCCCC[N+](C)(C)CCCC(C)C)cc(OCCCC[N+](C)(C)CCCC(C)C)c3)cc2)cc(OCCCC[N+](C)(C)CCCC(C)C)c1.[I-].[I-].[I-].[I-]` [Formula V] showed an MIC in series [3] of 4 µg/mL.

With `C(=C\c1cc(OCCCCCC[n+]2ccccc2)cc(OCCCCCC[n+]2ccccc2)c1)/c1cc(OCCCCCC[n+]2ccccc2)cc(OCCCCCC[n+]2ccccc2)c1.[I-].[I-].[I-].[I-]` [Formula C], half-maximal inhibition in series [2] (IC50) was put at 29.7 µg/mL.

Turning to `C[N+](C)(C)CCCCCCOc1cc(/C=C/c2ccc(/C=C/c3ccccc3)cc2)cc(OCCCCCC[N+](C)(C)C)c1OCCCCCC[N+](C)(C)C` [Formula WW], the IC50 in series [2] (setting [6]) came to 45.4 µg/mL; in series [5] (setting [7]) it was 30.9 µg/mL. In addition, the values for the MIC in series [4] and in series [3] were 2 µg/mL and 16 µg/mL, respectively.

Regarding `CCCCCC[N+](C)(C)CCOc1cc(/C=C/c2ccc(/C=C/c3cc(OCC[N+](C)(C)CCCCCC)cc(OCC[N+](C)(C)CCCCCC)c3)cc2)cc(OCC[N+](C)(C)CCCCCC)c1.[I-].[I-].[I-].[I-]` [Formula H], in series [2] (setting [6]), the IC50 stood at 13 µg/mL. Besides, in series [3], the MIC came out at 4 µg/mL.

For `CCCC[N+](C)(CCCCOc1cc(/C=C/c2ccc(/C=C/c3cc(OCCCC[N+](C)(CCCC)CCOCCOC)cc(OCCCC[N+](C)(CCCC)CCOCCOC)c3)cc2)cc(OCCCC[N+](C)(CCCC)CCOCCOC)c1)CCOCCOC` (centres unmarked) [Formula GG], the IC50 in series [5] (setting [7]) was 77.8 µg/mL. For the same compound, the MIC in series [3] is 32 µg/mL.

For `CCCCCC[N+](C)(CCCCOc1cc(/C=C/c2ccc(/C=C/c3cc(OCCCC[N+](C)(CCCCCC)CCOCCOCCOC)cc(OCCCC[N+](C)(CCCCCC)CCOCCOCCOC)c3)cc2)cc(OCCCC[N+](C)(CCCCCC)CCOCCOCCOC)c1)CCOCCOCCOC` (centres unmarked) [Formula KK], 16 µg/mL was the least that counted as inhibitory in series [3] (MIC).

With `C[N+](C)(C)CCCCCCN(CCCCCC[N+](C)(C)C)c1ccc(/C=C/c2ccc(/C=C/c3ccc(/C=C/c4ccc(N(CCCCCC[N+](C)(C)C)CCCCCC[N+](C)(C)C)cc4)cc3)cc2)cc1` [Formula VV], the viability at 24 h in series [1] (Hep G2 (ATCC HB-8065) cells) was 64%. The half-inhibitory concentration (IC50) in series [2] (setting [6]) was more than 128 µg/mL.

As for `CC[N+](C)(C)CCCOc1cc(/C=C/c2ccc(/C=C/c3cc(OCCC[N+](C)(C)CC)cc(OCCC[N+](C)(C)CC)c3)cc2)cc(OCCC[N+](C)(C)CC)c1` [Formula Y], the viability at 24 h in series [1] (Hep G2 (ATCC HB-8065) cells) came out at 61%. In series [2] (setting [6]), the IC50 was more than 1020 µg/mL. Moreover, the lowest concentration to inhibit growth in series [3] (MIC) was 32 µg/mL.

Take `C[N+](C)(C)CCCCCCN(CCCCCC[N+](C)(C)C)c1ccc(/C=C/c2ccc(/C=C/c3ccc(N(CCCCCC[N+](C)(C)C)CCCCCC[N+](C)(C)C)cc3)cc2)cc1` [Formula UU]: in series [2] (setting [6]), the half-inhibitory concentration (IC50) came out at 43.7 µg/mL.

A word on the IC50: it is the concentration that gives 50% inhibition. The term MIC denotes the lowest concentration found to suppress growth. Low readings indicate a more susceptible organism, high ones a less susceptible organism.
